Laboratory results taken from publication PMC11335262 (Cellular and Molecular Life Sciences: CMLS, 2024).
Read-outs that look alike come from different tables or passages of the source.

Tests used:
α9α10 nAChR = α9α10 nAChR (Rattus norvegicus, UniProt P43144+Q9JLB5); format: cell-based; settings: 10 µM ACh; for ACh response, % of responses at […] Ca^2+: Vhold -90
α9α10^α9Nt–TM2 = α9α10^α9Nt–TM2 (Rattus norvegicus, UniProt P43144+Q9JLB5, A103S/A128E/A130V/A141L/A146S/A160Y/A165S/A191G/A194S/A236S/A237S/A238F/A257S/A39E/A49E/A97Q/C241V/D100R/D263A/E60Q/E85T/F249L/G169N/G178N/G188L/G99D/H138Y/H177Y/H180N/H259Y/H92T/I284M/I67K/K96D/L182V/L205H/L214I/L245I/L252F/L278M/L285V/L78A/N199D/N40D/P126S/P127S/P186N/P95R/Q125E/Q53A/R109D/R143T/R151K/R155V/R167Q/R185F/R187A/R203E/R210V/R211K/R212N/R233K/R35S/S129P/S131N/S159T/S192D/T124D/T189D/T215S/T42S/T54V/T87H/V136L/V142I/V184I/V197I/V240I/V274I/V75I); format: cell-based; settings: 30 µM ACh; for ACh response, % of response at […] Ca^2+: Vhold -90
α9α10E201Q = α9α10E201Q (Rattus norvegicus, UniProt P43144+Q9JLB5, E201Q); format: cell-based
α9α10^α9Nt = α9α10^α9Nt (Rattus norvegicus, UniProt P43144+Q9JLB5, A103S/A128E/A130V/A141L/A146S/A160Y/A165S/A191G/A194S/A39E/A49E/A97Q/D100R/E60Q/E85T/G169N/G178N/G188L/G99D/H138Y/H177Y/H180N/H92T/I67K/K96D/L182V/L205H/L214I/L78A/N199D/N40D/P126S/P127S/P186N/P95R/Q125E/Q53A/R109D/R143T/R151K/R155V/R167Q/R185F/R187A/R203E/R210V/R211K/R212N/R233K/R35S/S129P/S131N/S159T/S192D/T124D/T189D/T215S/T42S/T54V/T87H/V136L/V142I/V184I/V197I/V75I); format: cell-based; settings: 10 µM ACh; for ACh response, % of response at […] Ca^2+: Vhold -90
α9α10^α9Nt–TM1TM2loop = α9α10^α9Nt–TM1TM2loop (Rattus norvegicus, UniProt P43144+Q9JLB5, A103S/A128E/A130V/A141L/A146S/A160Y/A165S/A191G/A194S/A236S/A237S/A238F/A257S/A39E/A49E/A97Q/C241V/D100R/D263A/E60Q/E85T/F249L/G169N/G178N/G188L/G99D/H138Y/H177Y/H180N/H259Y/H92T/I67K/K96D/L182V/L205H/L214I/L245I/L252F/L78A/N199D/N40D/P126S/P127S/P186N/P95R/Q125E/Q53A/R109D/R143T/R151K/R155V/R167Q/R185F/R187A/R203E/R210V/R211K/R212N/R233K/R35S/S129P/S131N/S159T/S192D/T124D/T189D/T215S/T42S/T54V/T87H/V136L/V142I/V184I/V197I/V240I/V75I); format: cell-based; settings: 40 µM ACh; for ACh response, % of response at […] Ca^2+: Vhold -90
α9α10^α9Nt–TM2TM3loop = α9α10^α9Nt–TM2TM3loop (Rattus norvegicus, UniProt P43144+Q9JLB5); format: cell-based; settings: for ACh response, % of response at […] Ca^2+: Vhold -90
α9α10E287Q = α9α10E287Q (Rattus norvegicus, UniProt P43144+Q9JLB5, E287Q); format: cell-based
α9α10^α9TM2TM3loop = α9α10^α9TM2TM3loop (Rattus norvegicus, UniProt P43144+Q9JLB5, A292S/P291A/S288I/S294N); format: cell-based; settings: for ACh response, % of response at […] Ca^2+: Vhold -90
α9α10^α9extra = α9α10^α9extra (Rattus norvegicus, UniProt P43144+Q9JLB5, A264D/A308T/A312F/A328P/E329N/F253L/F325Y/H335A/I246L/I275V/I304M/I310V/I323L/L250F/L309M/M279L/M285I/M319L/R331H/S258A/V286L/V320I/Y260H); format: cell-based; settings: for ACh response, % of response at […] Ca^2+: Vhold -90
α9α10E71Q = α9α10E71Q (Rattus norvegicus, UniProt P43144+Q9JLB5, E71Q); format: cell-based
homomeric α9 nAChR = settings: cited from earlier work
[1] = read-out: Ca^2+ IC50, block of responses to 100 µM ACh

ACh response, % of responses at […] Ca^2+ (α9α10 nAChR; 0.5 mM Ca^2+ (maximum)): 142.98 ± 10.12% | ACh response, % of responses at […] Ca^2+ (α9α10 nAChR; nominally zero Ca^2+): 16.79 ± 6.47% | ACh response, % of response at […] Ca^2+ (α9α10^α9Nt–TM2; 0.2 mM Ca^2+): 322.0 ± 40.0% | ACh response, % of response at […] Ca^2+ (α9α10^α9Nt–TM2; 3 mM Ca^2+): 69.5 ± 7.6% | 0.2 / 0 Ca^2+ ratio of response amplitudes (α9α10^α9Nt–TM2; +40 mV): 2.8 ± 0.4 | 0.2 / 0 Ca^2+ ratio of response amplitudes (α9α10^α9Nt–TM2; -90 mV): 4.1 ± 0.2 | ACh response, % of response at […] Ca^2+ (α9α10^α9Nt–TM2; nominally zero Ca^2+): 132.4 ± 27.5% | modulation of ACh-evoked responses by extracellular Ca^2+ (in words) (α9α10E201Q; 100 µM ACh): not potentiated by Ca^2+ | ACh response, % of response at […] Ca^2+ (α9α10E201Q; 3 mM Ca^2+, 100 µM ACh): 74.3 ± 11.2% | 3 / 0 Ca^2+ ratio of response (α9α10E201Q; +40 mV, 100 µM ACh): 0.53 ± 0.12 | 3 / 0 Ca^2+ ratio of response (α9α10E201Q; -90 mV, 100 µM ACh): 0.18 ± 0.05 | IC50 (α9α10E201Q; [1]): 900 ± 300 µM | ACh response, % of response at […] Ca^2+ (α9α10E201Q; zero Ca^2+, 100 µM ACh): 201.6 ± 39.7% | ACh response, % of response at […] Ca^2+ (α9α10^α9Nt; 0.2 mM Ca^2+): 225.8 ± 18.9% | ACh response, % of response at […] Ca^2+ (α9α10^α9Nt; 3 mM Ca^2+): 64.9 ± 5.9% | 0.2 / 0 Ca^2+ ratio of response amplitudes (α9α10^α9Nt; +40 mV): 2.5 ± 0.3 | 0.2 / 0 Ca^2+ ratio of response amplitudes (α9α10^α9Nt; -90 mV): 2.1 ± 0.4 | ACh response, % of response at […] Ca^2+ (α9α10^α9Nt; nominally zero Ca^2+): 115.2 ± 27.3% | ACh response, % of response at […] Ca^2+ (α9α10^α9Nt–TM1TM2loop; 0.2 mM Ca^2+): 358.3 ± 32.4% | ACh response, % of response at […] Ca^2+ (α9α10^α9Nt–TM1TM2loop; 3 mM Ca^2+): 73.5 ± 9.3% | 0.2 / 0 Ca^2+ ratio of response amplitudes (α9α10^α9Nt–TM1TM2loop; +40 mV): 5.9 ± 2.6 | 0.2 / 0 Ca^2+ ratio of response amplitudes (α9α10^α9Nt–TM1TM2loop; -90 mV): 5.4 ± 2.4 | ACh response, % of response at […] Ca^2+ (α9α10^α9Nt–TM1TM2loop; nominally zero Ca^2+): 95.2 ± 18.8% | ACh response, % of response at […] Ca^2+ (α9α10^α9Nt–TM2TM3loop; 3 mM Ca^2+, 5 µM ACh): 108.1 ± 10.7% | 3 / 0 Ca^2+ ratio of response (α9α10^α9Nt–TM2TM3loop; +40 mV, 5 µM ACh): 1.2 ± 0.3 | 3 / 0 Ca^2+ ratio of response (α9α10^α9Nt–TM2TM3loop; -90 mV, 5 µM ACh): 0.20 ± 0.03 | IC50 (α9α10^α9Nt–TM2TM3loop; read-out: Ca^2+ IC50, block of responses to 5 µM ACh, -90 mV): 500 ± 100 µM | ACh response, % of response at […] Ca^2+ (α9α10^α9Nt–TM2TM3loop; zero Ca^2+, 5 µM ACh): 611.3 ± 91.2% | modulation of ACh-evoked responses by extracellular Ca^2+ (in words) (α9α10E287Q; 20 µM ACh): not potentiated by Ca^2+ | ACh response, % of response at […] Ca^2+ (α9α10E287Q; 3 mM Ca^2+, 20 µM ACh): 67.6 ± 5.6% | 3 / 0 Ca^2+ ratio of response (α9α10E287Q; +40 mV, 20 µM ACh): 0.48 ± 0.04 | 3 / 0 Ca^2+ ratio of response (α9α10E287Q; -90 mV, 20 µM ACh): 0.26 ± 0.02 | IC50 (α9α10E287Q; read-out: Ca^2+ IC50, block of responses to 20 µM ACh): 300 ± 100 µM | ACh response, % of response at […] Ca^2+ (α9α10E287Q; zero Ca^2+, 20 µM ACh): 320.7 ± 97.4% | ACh response, % of response at […] Ca^2+ (α9α10^α9TM2TM3loop; 3 mM Ca^2+, 50 µM ACh): 71.3 ± 5.2% | ACh response, % of response at […] Ca^2+ (α9α10^α9TM2TM3loop; 3 mM Ca^2+, sub-EC50 25 µM ACh): 46.3 ± 20.9% | 3 / 0 Ca^2+ ratio of response (α9α10^α9TM2TM3loop; +40 mV, 50 µM ACh): 0.74 ± 0.14 | 3 / 0 Ca^2+ ratio of response (α9α10^α9TM2TM3loop; -90 mV, 50 µM ACh): 0.14 ± 0.02 | ACh response, % of response at […] Ca^2+ (α9α10^α9TM2TM3loop; zero Ca^2+, 50 µM ACh): 401.0 ± 103.4% | ACh response, % of response at […] Ca^2+ (α9α10^α9TM2TM3loop; zero Ca^2+, sub-EC50 25 µM ACh): 668.7 ± 340.2% | ACh response, % of response at […] Ca^2+ (α9α10^α9extra; 3 mM Ca^2+, 10 µM ACh): 72.3 ± 5.3% | 3 / 0 Ca^2+ ratio of response (α9α10^α9extra; +40 mV, 10 µM ACh): 0.60 ± 0.08 | 3 / 0 Ca^2+ ratio of response (α9α10^α9extra; -90 mV, 10 µM ACh): 0.20 ± 0.05 | IC50 (α9α10^α9extra; read-out: Ca^2+ IC50, block of responses to 10 µM ACh, -90 mV): 700 ± 200 µM | ACh response, % of response at […] Ca^2+ (α9α10^α9extra; zero Ca^2+, 10 µM ACh): 217.3 ± 6.3% | modulation of ACh-evoked responses by extracellular Ca^2+ (in words) (α9α10E71Q; 100 µM ACh): not potentiated by Ca^2+ | ACh response, % of response at […] Ca^2+ (α9α10E71Q; 3 mM Ca^2+, 100 µM ACh): 64.8 ± 2.7% | 3 / 0 Ca^2+ ratio of response (α9α10E71Q; +40 mV, 100 µM ACh): 1.05 ± 0.29 | 3 / 0 Ca^2+ ratio of response (α9α10E71Q; -90 mV, 100 µM ACh): 0.25 ± 0.05 | IC50 (α9α10E71Q; [1]): 800 ± 100 µM | ACh response, % of response at […] Ca^2+ (α9α10E71Q; zero Ca^2+, 100 µM ACh): 211.0 ± 35.6%
Compound: [Ca+2] [Ca^2+, Calcium]
modulation of ACh-evoked responses by extracellular Ca^2+ (in words) (α9α10 nAChR): potentiated by sub-millimolar Ca^2+ concentrations | modulation of ACh-evoked responses by extracellular Ca^2+ (in words) (α9α10^α9Nt–TM2): potentiated by Ca^2+ up to 0.2 mM and blocked by higher concentrations | modulation of ACh-evoked responses by extracellular Ca^2+ (in words) (α9α10^α9Nt): potentiated by Ca^2+ up to 0.2 mM and blocked by higher concentrations | modulation of ACh-evoked responses by extracellular Ca^2+ (in words) (α9α10^α9Nt–TM1TM2loop): potentiated by Ca^2+ up to 0.2 mM and blocked by higher concentrations | modulation of ACh-evoked responses by extracellular Ca^2+ (in words) (α9α10^α9Nt–TM2TM3loop; 5 µM ACh): only blocked by increasing Ca^2+ concentrations | modulation of ACh-evoked responses by extracellular Ca^2+ (in words) (α9α10^α9TM2TM3loop; 50 µM ACh): not potentiated by extracellular Ca^2+, but instead blocked by this ion | modulation of ACh-evoked responses by extracellular Ca^2+ (in words) (α9α10^α9extra; 10 µM ACh): not potentiated by Ca^2+, and only blocked by increasing Ca^2+ concentrations | ACh response amplitude normalized to 0 mM Ca^2+ (Imax) (homomeric α9 nAChR; […] Ca^2+, 100 µM ACh, Vhold -70, homomeric α9): 5.63 ± 0.58% | modulation of ACh-evoked responses by extracellular Ca^2+ (in words) (homomeric α9 nAChR; rat α9 nAChRs): only blocked by this ion | IC50 (homomeric α9 nAChR; read-out: Ca^2+ IC50 (50% of response block), homomeric α9, -70 mV): 100 ± 10 µM
